In article PMC5415745, “Drug-transporter mediated interactions between anthelminthic and antiretroviral drugs across the Caco-2 cell monolayers” (BMC Pharmacology & Toxicology, 2017):
Where “and” joins values, the source holds several entries; their conditions need not be identical. Identical values can stand only once. Entries after “also recorded” stand apart in the source; their conditions may differ.

What was measured:
Caco-2 cell monolayers = assay: Bidirectional (AP→BL, BL→AP) drug transport across Caco-2 cell monolayers in transwells: cumulative transport, Papp, efflux ratio; HPLC or radiolabeled assay
[1] = as above; details: human
[2] = 120 min, individual samples 1-3
[3] = 180 min, individual samples 1-3
[4] = 240 min, individual samples 1-3
[5] = IVM alone (SQV experiment), 60 min, mean
[6] = IVM alone (SQV experiment), 120 min, mean
[7] = IVM alone (SQV experiment), 120 min, samples 1-3
[8] = IVM alone (SQV experiment), 180 min, mean
[9] = IVM alone (SQV experiment), 180 min, samples 1-3
[10] = IVM alone (SQV experiment), 240 min, mean
[11] = IVM alone (SQV experiment), 240 min, samples 1-3
[12] = IVM alone (SQV experiment), after 60min, individual samples
[13] = IVM alone (SQV experiment), after 60min, mean
[14] = IVM alone, 60 min, individual experiments 1-3
[15] = IVM alone, 120 min, individual experiments 1-3
[16] = IVM alone, 180 min, individual experiments 1-3
[17] = IVM alone, 240 min, individual experiments 1-3
[18] = [3H] IVM alone, 60 min, individual experiments 1-3
[19] = [3H] IVM alone, 60 min, mean, n=3
[20] = [3H] IVM alone, 120 min, individual experiments 1-3
[21] = [3H] IVM alone, 120 min, mean, n=3
[22] = [3H] IVM alone, 180 min, individual experiments 1-3
[23] = [3H] IVM alone, 180 min, mean, n=3
[24] = [3H] IVM alone, 240 min, individual experiments 1-3
[25] = [3H] IVM alone, 240 min, mean, n=3
[26] = [3H] IVM alone, after 60 min, mean, n=3
[27] = [3H] IVM alone, after 60 min, samples 1-3
[28] = labelled drug is the interacting drug
[29] = samples after 60min, individual samples 1-3, IVM alone
[30] = samples after 60min, mean n=3, IVM alone
[31] = [3H] LPV alone, 60 min, individual experiments 1-3
[32] = [3H] LPV alone, 60 min, mean, n=3
[33] = [3H] LPV alone, 120 min, individual experiments 1-3
[34] = [3H] LPV alone, 120 min, mean, n=3
[35] = [3H] LPV alone, 180 min, individual experiments 1-3
[36] = [3H] LPV alone, 180 min, mean, n=3
[37] = [3H] LPV alone, 240 min, individual experiments 1-3
[38] = [3H] LPV alone, 240 min, mean, n=3
[39] = [3H] LPV alone, after 60 min, samples 1-3

SMILES: CC[C@H](C)[C@H]1O[C@]2(CC[C@@H]1C)C[C@@H]1C[C@@H](C/C=C(\C)[C@@H](O[C@H]3C[C@H](OC)[C@@H](O[C@H]4C[C@H](OC)[C@@H](O)[C@H](C)O4)[C@H](C)O3)[C@@H](C)/C=C/C=C3\CO[C@@H]4[C@H](O)C(C)=C[C@@H](C(=O)O1)[C@]34O)O2 [IVM, ivermectin]
- Apical to basal transport (cumulative, receiver) (Caco-2 cell monolayers; 60 min, individual samples 1-3): 0.57 pmol and 0.44 pmol and 1.00 pmol
- Basal to apical transport (cumulative, receiver) (Caco-2 cell monolayers; 60 min, individual samples 1-3): 0.65 pmol and 0.55 pmol and 0.96 pmol
- Apical to basal transport (cumulative, receiver), Mean (Caco-2 cell monolayers; 60 min, mean n=3): 0.67 pmol
- Basal to apical transport (cumulative, receiver), Mean (Caco-2 cell monolayers; 60 min, mean n=3): 0.72 pmol
- Apical to basal transport (cumulative, receiver) (Caco-2 cell monolayers; [2]): 0.50 pmol and 0.61 pmol and 1.00 pmol
- Basal to apical transport (cumulative, receiver) (Caco-2 cell monolayers; [2]): 1.34 pmol and 1.05 pmol and 1.67 pmol
- Apical to basal transport (cumulative, receiver), Mean (Caco-2 cell monolayers; 120 min, mean n=3): 0.71 pmol
- Apical to basal transport (cumulative, receiver) (Caco-2 cell monolayers; [3]): 0.66 pmol and 0.77 pmol and 1.54 pmol
- Basal to apical transport (cumulative, receiver) (Caco-2 cell monolayers; [3]): 1.45 pmol and 1.96 pmol
- Apical to basal transport (cumulative, receiver), Mean (Caco-2 cell monolayers; 180 min, mean n=3): 0.99 pmol
- Basal to apical transport (cumulative, receiver), Mean (Caco-2 cell monolayers; 180 min, mean n=3): 1.63 pmol
- Apical to basal transport (cumulative, receiver) (Caco-2 cell monolayers; [4]): 0.96 pmol and 0.81 pmol and 1.30 pmol
- Basal to apical transport (cumulative, receiver) (Caco-2 cell monolayers; [4]): 2.52 pmol and 1.59 pmol and 2.27 pmol
- Apical to basal transport (cumulative, receiver), Mean (Caco-2 cell monolayers; 240 min, mean n=3): 1.03 pmol
- Basal to apical transport (cumulative, receiver), Mean (Caco-2 cell monolayers; 240 min, mean n=3): 2.13 pmol
- Apical to basal transport Mean (Caco-2 cell monolayers; [5]): 11.45 fmol
- Basal to apical transport Mean (Caco-2 cell monolayers; [5]): 11.69 fmol
- Basal to apical transport (Caco-2 cell monolayers; IVM alone (SQV experiment), 60 min, samples 1-3): 12.29 fmol and 9.26 fmol
- Apical to basal transport Mean (Caco-2 cell monolayers; [6]): 15.92 fmol
- Basal to apical transport Mean (Caco-2 cell monolayers; [6]): 17.90 fmol
- Apical to basal transport (Caco-2 cell monolayers; [7]): 0.01408 pmol and 0.02131 pmol and 0.01237 pmol
- Basal to apical transport (Caco-2 cell monolayers; [7]): 21.06 fmol and 15.84 fmol and 16.78 fmol
- Apical to basal transport Mean (Caco-2 cell monolayers; [8]): 20.75 fmol
- Basal to apical transport Mean (Caco-2 cell monolayers; [8]): 25.75 fmol
- Apical to basal transport (Caco-2 cell monolayers; [9]): 0.02329 pmol and 0.01834 pmol and 0.02063 pmol
- Basal to apical transport (Caco-2 cell monolayers; [9]): 26.26 fmol
- Apical to basal transport Mean (Caco-2 cell monolayers; [10]): 25.60 fmol
- Basal to apical transport Mean (Caco-2 cell monolayers; [10]): 35.30 fmol
- Apical to basal transport (Caco-2 cell monolayers; [11]): 0.02118 pmol and 0.03003 pmol and 0.0256 pmol
- Basal to apical transport (Caco-2 cell monolayers; [11]): 45.23 fmol and 24.14 fmol and 36.53 fmol
- Apical to basal transport Conc. Basal (Caco-2 cell monolayers; [12]): 15.84 fmol and 11.06 fmol and 7.45 fmol
- Basal to apical transport Conc. Apical (Caco-2 cell monolayers; [12]): 13.53 fmol
- PappAB (Caco-2 cell monolayers; [12]): 10.74 10^6 cm/s and 7.18 10^6 cm/s and 4.31 10^6 cm/s
- PappBA (Caco-2 cell monolayers; [12]): 7.36 10^6 cm/s and 5.84 10^6 cm/s and 4.54 10^6 cm/s
- PappAB Mean (Caco-2 cell monolayers; [13]): 7.41 10^6 cm/s
- PappBA Mean (Caco-2 cell monolayers; [13]): 5.92 10^6 cm/s
- Apical to basal transport (Caco-2 cell monolayers; [14]): 8.30 pmol and 7.46 pmol and 8.35 pmol
- Basal to apical transport (Caco-2 cell monolayers; [14]): 15750 fmol and 21160 fmol
- Apical to basal transport Mean (Caco-2 cell monolayers; IVM alone, 60 min, mean, n=3): 8040 fmol
- Basal to apical transport Mean (Caco-2 cell monolayers; IVM alone, 60 min, mean, n=3): 17700 fmol
- Apical to basal transport (Caco-2 cell monolayers; [15]): 17.04 pmol and 10.98 pmol and 9.22 pmol
- Basal to apical transport (Caco-2 cell monolayers; [15]): 21400 fmol and 27210 fmol and 31370 fmol
- Apical to basal transport Mean (Caco-2 cell monolayers; IVM alone, 120 min, mean, n=3): 12410 fmol
- Basal to apical transport Mean (Caco-2 cell monolayers; IVM alone, 120 min, mean, n=3): 26660 fmol
- Apical to basal transport (Caco-2 cell monolayers; [16]): 20.27 pmol and 13.19 pmol and 16.36 pmol
- Basal to apical transport (Caco-2 cell monolayers; [16]): 26810 fmol and 40700 fmol
- Apical to basal transport Mean (Caco-2 cell monolayers; IVM alone, 180 min, mean, n=3): 16610 fmol
- Basal to apical transport Mean (Caco-2 cell monolayers; IVM alone, 180 min, mean, n=3): 31010 fmol
- Apical to basal transport (Caco-2 cell monolayers; [17]): 16.26 pmol and 22.17 pmol and 13.75 pmol
- Basal to apical transport (Caco-2 cell monolayers; [17]): 35200 fmol and 45800 fmol
- Apical to basal transport Mean (Caco-2 cell monolayers; IVM alone, 240 min, mean, n=3): 17390 fmol
- Basal to apical transport Mean (Caco-2 cell monolayers; IVM alone, 240 min, mean, n=3): 37700 fmol
- Apical to basal transport (Caco-2 cell monolayers; [18]): 0.01435 pmol and 0.01486 pmol and 0.01544 pmol
- Basal to apical transport (Caco-2 cell monolayers; [18]): 12.86 fmol and 12.68 fmol
- Apical to basal transport Mean (Caco-2 cell monolayers; [19]): 14.88 fmol
- Basal to apical transport Mean (Caco-2 cell monolayers; [19]): 13.03 fmol
- Apical to basal transport (Caco-2 cell monolayers; [20]): 0.0208 pmol and 0.02034 pmol and 0.02175 pmol
- Basal to apical transport (Caco-2 cell monolayers; [20]): 17.34 fmol and 18.56 fmol and 18.52 fmol
- Apical to basal transport Mean (Caco-2 cell monolayers; [21]): 20.96 fmol
- Basal to apical transport Mean (Caco-2 cell monolayers; [21]): 18.14 fmol
- Apical to basal transport (Caco-2 cell monolayers; [22]): 0.02572 pmol and 0.02395 pmol and 0.02543 pmol
- Basal to apical transport (Caco-2 cell monolayers; [22]): 17.07 fmol and 23.80 fmol and 31.79 fmol
- Apical to basal transport Mean (Caco-2 cell monolayers; [23]): 25.03 fmol
- Basal to apical transport Mean (Caco-2 cell monolayers; [23]): 24.22 fmol
- Apical to basal transport (Caco-2 cell monolayers; [24]): 0.02516 pmol and 0.02638 pmol and 0.02306 pmol
- Basal to apical transport (Caco-2 cell monolayers; [24]): 22.70 fmol and 28.67 fmol and 34.20 fmol
- Apical to basal transport Mean (Caco-2 cell monolayers; [25]): 24.86 fmol
- Basal to apical transport Mean (Caco-2 cell monolayers; [25]): 28.52 fmol
- PappAB Mean (Caco-2 cell monolayers; [26]): 14.06 10^6 cm/s
- PappBA Mean (Caco-2 cell monolayers; [26]): 11.32 10^6 cm/s
- Apical to basal transport Conc. Apical (Caco-2 cell monolayers; [27]): 101.63 fmol and 106.60 fmol and 109.59 fmol
- Basal to apical transport Conc. Apical (Caco-2 cell monolayers; [27]): 13.56 fmol
- Basal to apical transport Conc. Basal (Caco-2 cell monolayers; [27]): 110.67 fmol and 126.53 fmol and 111.99 fmol
- PappAB Papp (Caco-2 cell monolayers; [27]): 16.8 ×10⁻⁶ cm/s and 13.7 ×10⁻⁶ cm/s and 11.7 ×10⁻⁶ cm/s
- PappBA Papp (Caco-2 cell monolayers; [27]): 14.6 ×10⁻⁶ cm/s and 9.96 ×10⁻⁶ cm/s and 9.43 ×10⁻⁶ cm/s
- Effect on the (efflux) transport of SQV (Caco-2 cell monolayers; [28]): significantly inhibited
- Effect on the efflux of EFV (Caco-2 cell monolayers; [28]): increased; also recorded: marginally significant increase
- Effect on the efflux transport of LPV (Caco-2 cell monolayers; [28]): significantly inhibited; also recorded: eightfold inhibition
- Effect on the transport of NVP (Caco-2 cell monolayers; [28]): did not appear to significantly influence
- PappAB Papp (Caco-2 cell monolayers; [29]): 7.59 10^9 cm/s and 4.95 10^9 cm/s and 10.26 10^9 cm/s
- PappBA Papp (Caco-2 cell monolayers; [29]): 10.18 10^9 cm/s and 5.89 10^9 cm/s and 10.76 10^9 cm/s
- PappAB Mean (Caco-2 cell monolayers; [30]): 7.60 10^9 cm/s
- PappBA Mean (Caco-2 cell monolayers; [30]): 8.94 10^9 cm/s

SMILES: Cc1cccc(C)c1OCC(=O)N[C@@H](Cc1ccccc1)[C@@H](O)C[C@H](Cc1ccccc1)NC(=O)[C@H](C(C)C)N1CCCNC1=O [LPV, lopinavir]
- Apical to basal transport (Caco-2 cell monolayers; [31]): 0.92 pmol and 0.73 pmol and 0.68 pmol
- Basal to apical transport (Caco-2 cell monolayers; [31]): 4420 fmol and 4440 fmol and 5330 fmol
- Apical to basal transport Mean (Caco-2 cell monolayers; [32]): 780 fmol
- Basal to apical transport Mean (Caco-2 cell monolayers; [32]): 4730 fmol
- Apical to basal transport (Caco-2 cell monolayers; [33]): 1.24 pmol and 1.79 pmol and 1.27 pmol
- Basal to apical transport (Caco-2 cell monolayers; [33]): 7380 fmol and 6910 fmol and 8430 fmol
- Apical to basal transport Mean (Caco-2 cell monolayers; [34]): 1430 fmol
- Basal to apical transport Mean (Caco-2 cell monolayers; [34]): 7570 fmol
- Apical to basal transport (Caco-2 cell monolayers; [35]): 1.93 pmol and 2.34 pmol and 1.52 pmol
- Basal to apical transport (Caco-2 cell monolayers; [35]): 9010 fmol and 8460 fmol and 10620 fmol
- Apical to basal transport Mean (Caco-2 cell monolayers; [36]): 1930 fmol
- Basal to apical transport Mean (Caco-2 cell monolayers; [36]): 9360 fmol
- Apical to basal transport (Caco-2 cell monolayers; [37]): 2.15 pmol and 2.71 pmol and 1.78 pmol
- Basal to apical transport (Caco-2 cell monolayers; [37]): 11970 fmol and 11410 fmol and 12040 fmol
- Apical to basal transport Mean (Caco-2 cell monolayers; [38]): 2210 fmol
- Basal to apical transport Mean (Caco-2 cell monolayers; [38]): 11810 fmol
- PappBA Mean (Caco-2 cell monolayers; [3H] LPV alone, after 60 min, mean, n=3): 32.09 10^9 cm/s
- Apical to basal transport Conc. Apical (Caco-2 cell monolayers; [39]): 18430 fmol and 19890 fmol
- Basal to apical transport Conc. Basal (Caco-2 cell monolayers; [39]): 14480 fmol and 17270 fmol and 21600 fmol
- Effect on the transport of IVM (Caco-2 cell monolayers; [28]): twofold decrease in the efflux ratio
- Papp A→B at 60 min ([1]; Caco-2, Papp AP → BL, mean (n=3) after 60 min, drug A alone, or label 'A + B' = transport of A in presence of interacting drug B, concentrations per Table 1): 4.8 ×10⁻⁶ cm/s
- Papp B→A at 60 min ([1]; Caco-2, Papp BL → AP, mean (n=3) after 60 min, drug A alone, or label 'A + B' = transport of A in presence of interacting drug B, concentrations per Table 1): 32.1 ×10⁻⁶ cm/s
- Papp A→B at 60 min ([1]; Caco-2, PappAB Papp, [3H] LPV alone, after 60 min, samples 1-3): 5.95 ×10⁻⁶ cm/s
- Papp B→A at 60 min ([1]; Caco-2, PappBA Papp, [3H] LPV alone, after 60 min, samples 1-3): 36.3 ×10⁻⁶ cm/s
